# Values joined by “and” are separate entries in the source; they are usually repeats but may differ in a detail not shown here. Identical values can stand only once. Inconclusive results and toxic doses are left out.
# Tested on: P388 leukemia ip, CD2F1 mice, survival T/C
# Assay: NCI In Vivo Anticancer Drug Screen. Data for tumor model P388 Leukemia (intraperitoneal) in CD2F1 (CDF1) mice
# Details: endpoint: median survival time, higher = longer survival
# Method in brief: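 Mice carrying the transplanted tumor received test compound or vehicle. Survival was recorded in each group, and the value is the treated-group measurement divided by that of the vehicle-treated control group.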
# [1] = dose: 15.0 mg/kg/injection, schedule: Q01DX005 (ip), vehicle: Klucel (hydroxypropylcellulose) (HPC)
# [2] = dose: 30.0 mg/kg/injection, schedule: Q01DX005 (ip), vehicle: Klucel (hydroxypropylcellulose) (HPC)
# [3] = dose: 50.0 mg/kg/injection, schedule: Q01DX009 (ip), vehicle: saline with Tween-80
# [4] = dose: 100.0 mg/kg/injection, schedule: Q01DX009 (ip), vehicle: saline with Tween-80
# [5] = dose: 200.0 mg/kg/injection, schedule: Q01DX009 (ip), vehicle: saline with Tween-80
# [6] = dose: 50.0 mg/kg/injection, schedule: Q01DX005 (ip), vehicle: saline with Tween-80
# [7] = dose: 100.0 mg/kg/injection, schedule: Q01DX005 (ip), vehicle: saline with Tween-80
# [8] = dose: 200.0 mg/kg/injection, schedule: Q01DX005 (ip), vehicle: saline with Tween-80
# [9] = dose: 50.0 mg/kg/injection, schedule: Q01DX005 (ip), vehicle: Klucel (hydroxypropylcellulose) (HPC)
# [10] = dose: 100.0 mg/kg/injection, schedule: Q01DX005 (ip), vehicle: Klucel (hydroxypropylcellulose) (HPC)
# [11] = dose: 200.0 mg/kg/injection, schedule: Q01DX005 (ip), vehicle: Klucel (hydroxypropylcellulose) (HPC)
# [12] = dose: 60.0 mg/kg/injection, schedule: Q01DX005 (ip), vehicle: saline with Tween-80
# [13] = dose: 120.0 mg/kg/injection, schedule: Q01DX005 (ip), vehicle: saline with Tween-80
# [14] = dose: 240.0 mg/kg/injection, schedule: Q01DX005 (ip), vehicle: saline with Tween-80
# [15] = dose: 50.0 mg/kg/injection, schedule: Q01DX009 (ip), vehicle: suspension in saline
# [16] = dose: 100.0 mg/kg/injection, schedule: Q01DX009 (ip), vehicle: suspension in saline
# [17] = dose: 200.0 mg/kg/injection, schedule: Q01DX009 (ip), vehicle: suspension in saline
# [18] = dose: 100.0 mg/kg/injection, schedule: Q01DX009 (ip), vehicle: Klucel (hydroxypropylcellulose) (HPC)
smiles,measurement,setting,value
C[C@H]1CC[C@@]2(C)C(CCC(=O)C2(C)O)[C@]1(C)CC(=O)c1ccoc1 (some centres undefined),T/C,"dose: 3.75 mg/kg/injection, schedule: Q01DX005 (ip), vehicle: Klucel (hydroxypropylcellulose) (HPC)",91 % of control
same,T/C,"dose: 7.5 mg/kg/injection, schedule: Q01DX005 (ip), vehicle: Klucel (hydroxypropylcellulose) (HPC)",88 % of control
same,T/C,[1],88 % of control
same,T/C,[2],88 % of control
COc1ccc(/C=C/c2c(C(=O)O)oc3ccccc23)cc1,T/C,[3],103 % of control
same,T/C,[4],95 % of control
same,T/C,[5],112 % of control
CCOC(=O)c1ccccc1N,T/C,"dose: 25.0 mg/kg/injection, schedule: Q01DX005 (ip), vehicle: saline with Tween-80",100 % of control
same,T/C,[6],105 % of control
same,T/C,[7],99 % of control
same,T/C,[8],100 % of control
O=[N+]([O-])c1ccc2[nH]ncc2c1,T/C,[3],100 % of control
same,T/C,[4],100 % of control
same,T/C,[5],110 % of control
Cn1cc(C2=C(Cl)C(=O)N(c3cc(Cl)cc(Cl)c3)C2=O)c(=O)n(C)c1=O,T/C,[1],99 % of control
same,T/C,[2],99 % of control
same,T/C,"dose: 60.0 mg/kg/injection, schedule: Q01DX005 (ip), vehicle: Klucel (hydroxypropylcellulose) (HPC)",111 % of control
CSc1nc(Cl)c2ncn(C3C=CC(OC(C)=O)CO3)c2n1 (centres undefined),T/C,[9],103 % of control
same,T/C,[10],99 % of control
same,T/C,[11],109 % of control
CCCC(O)(CCC)/C(C)=N/O,T/C,"dose: 12.5 mg/kg/injection, schedule: Q01DX009 (ip), vehicle: saline with Tween-80",99 % of control
same,T/C,"dose: 25.0 mg/kg/injection, schedule: Q01DX009 (ip), vehicle: saline with Tween-80",107 % of control
same,T/C,[3],87 % of control and 98 % of control
same,T/C,[5],88 % of control
NCCCN1CCCC1,T/C,"dose: 50.0 mg/kg/injection, schedule: Q01DX005 (ip), vehicle: saline",95 % of control
same,T/C,"dose: 100.0 mg/kg/injection, schedule: Q01DX005 (ip), vehicle: saline",105 % of control
CCOC(=O)C(Nc1cc([N+](=O)[O-])ccc1C(=O)OC(C)C)(OC(C)C)C(=O)OCC,T/C,"dose: 100.0 mg/kg/injection, schedule: Q04DX002 (ip), vehicle: Klucel (hydroxypropylcellulose) (HPC)",90 % of control
same,T/C,"dose: 200.0 mg/kg/injection, schedule: Q04DX002 (ip), vehicle: Klucel (hydroxypropylcellulose) (HPC)",91 % of control
same,T/C,"dose: 400.0 mg/kg/injection, schedule: Q04DX002 (ip), vehicle: Klucel (hydroxypropylcellulose) (HPC)",90 % of control
CC(C)=CN=Cc1nc(Cc2ccccc2)oc1O,T/C,[12],105 % of control
same,T/C,[13],96 % of control
same,T/C,[14],94 % of control
CC(=O)CC1C(=O)OC(C)(C)OC1=O,T/C,[6],112 % of control
same,T/C,[7],106 % of control
same,T/C,[8],103 % of control
CC(=O)OCCOCNC(=S)NN,T/C,[12],101 % of control
same,T/C,[13],101 % of control
same,T/C,[14],90 % of control
Cc1cc(-c2ccc(N3C(=O)CC4(CCCCC4)C3=O)c(C)c2)ccc1N1C(=O)CC2(CCCCC2)C1=O,T/C,"dose: 100.0 mg/kg/injection, schedule: Q04DX003 (ip), vehicle: Klucel (hydroxypropylcellulose) (HPC)",90 % of control
same,T/C,"dose: 200.0 mg/kg/injection, schedule: Q04DX003 (ip), vehicle: Klucel (hydroxypropylcellulose) (HPC)",90 % of control
CCOc1ccc(C(c2ccc(OCC)cc2)C(C)C)cc1,T/C,[15],108 % of control
same,T/C,[16],100 % of control
same,T/C,[17],105 % of control
COc1ccc(OC)c2cc3c(cc12)C(=O)C(C)=C(C)C3=O,T/C,[9],89 % of control
same,T/C,[10],86 % of control
same,T/C,[11],88 % of control
O=C1CCCC/C1=C\N(c1ccccc1)c1ccccc1,T/C,[3],106 % of control
same,T/C,[4],98 % of control
same,T/C,[5],95 % of control
COc1cccc2c1C(=N)c1c(O)c3c(c(O)c1C2=O)C[C@@](O)(C(O)CO)C[C@@H]3OC1CC(N2CCOCC2)C(O)C(C)O1 (some centres undefined),T/C,"dose: 3.12 mg/kg/injection, schedule: Q04DX003 (ip), vehicle: water",112 % of control and 115 % of control
same,T/C,"dose: 6.25 mg/kg/injection, schedule: Q04DX003 (ip), vehicle: water",118 % of control
same,T/C,"dose: 12.5 mg/kg/injection, schedule: Q04DX003 (ip), vehicle: water",108 % of control and 120 % of control
same,T/C,"dose: 18.7 mg/kg/injection, schedule: Q04DX003 (ip), vehicle: water",105 % of control
same,T/C,"dose: 50.0 mg/kg/injection, schedule: Q04DX003 (ip), vehicle: water",115 % of control and 161 % of control and 221 % of control
same,T/C,"dose: 75.0 mg/kg/injection, schedule: Q04DX003 (ip), vehicle: water",118 % of control
COC(=O)C[N+](C)(C)Cc1ccccc1,T/C,"dose: 50.0 mg/kg/injection, schedule: Q01DX009 (ip), vehicle: DMSO",97 % of control
same,T/C,"dose: 100.0 mg/kg/injection, schedule: Q01DX009 (ip), vehicle: DMSO",99 % of control
CCn1ncc2c(=O)c(C(=O)c3ccccc3)c[nH]c21,T/C,[6],99 % of control
same,T/C,[7],97 % of control
same,T/C,[8],104 % of control
COC(=O)NC1C(C)OC(OC2C/C=C(/C)C3C=CC4C(OC5CC(OC6CC(OC7CC(O)C(O)C(C)O7)C(OC7CC(O)C(OC)C(C)O7)C(C)O6)C(O)C(C)O5)C(C)CC(C)C4C3(C)/C(O)=C3\C(=O)OC4(CC(C)C(CO)=CC4/C=C\2C)C3=O)CC1(C)[N+](=O)[O-] (centres undefined),T/C,"dose: 7.5 mg/kg/injection, schedule: Q01DX009 (ip), vehicle: saline",106 % of control
same,T/C,"dose: 15.0 mg/kg/injection, schedule: Q01DX009 (ip), vehicle: saline",115 % of control and 122 % of control
same,T/C,"dose: 30.0 mg/kg/injection, schedule: Q01DX009 (ip), vehicle: saline",121 % of control
CCOC(=O)/C(=C/c1ccco1)C(C)=O,T/C,[18],102 % of control
same,T/C,"dose: 200.0 mg/kg/injection, schedule: Q01DX009 (ip), vehicle: Klucel (hydroxypropylcellulose) (HPC)",110 % of control
Cn1c(Cl)c(C=O)c(=O)n(C)c1=O,T/C,"dose: 100.0 mg/kg/injection, schedule: Q04DX003 (ip), vehicle: saline with Tween-80",104 % of control
same,T/C,"dose: 200.0 mg/kg/injection, schedule: Q04DX003 (ip), vehicle: saline with Tween-80",96 % of control
O=C1CCCCCCCNC(=O)CCCCCCC(=O)NCCCCCCCC(=O)NCCCCCCCCN1,T/C,"dose: 50.0 mg/kg/injection, schedule: Q01DX001 (ip), vehicle: Klucel (hydroxypropylcellulose) (HPC)",91 % of control
same,T/C,"dose: 100.0 mg/kg/injection, schedule: Q01DX001 (ip), vehicle: Klucel (hydroxypropylcellulose) (HPC)",90 % of control
same,T/C,"dose: 200.0 mg/kg/injection, schedule: Q01DX001 (ip), vehicle: Klucel (hydroxypropylcellulose) (HPC)",86 % of control and 89 % of control
same,T/C,"dose: 400.0 mg/kg/injection, schedule: Q01DX001 (ip), vehicle: Klucel (hydroxypropylcellulose) (HPC)",89 % of control
Cc1cc(C)c(CSc2cc(N)nc(N)c2N)c(C)c1,T/C,"dose: 50.0 mg/kg/injection, schedule: Q01DX009 (ip), vehicle: Klucel (hydroxypropylcellulose) (HPC)",104 % of control
same,T/C,[18],107 % of control
Cc1ccc(NC(=O)c2cc3ccccc3cc2O)c(C)c1.Cc1ccc(NC(=O)c2cc3ccccc3cc2[O-])c(C)c1.[Ni+2],T/C,"dose: 1.56 mg/kg/injection, schedule: Q01DX009 (ip), vehicle: saline with Tween-80",109 % of control
same,T/C,"dose: 3.12 mg/kg/injection, schedule: Q01DX009 (ip), vehicle: saline with Tween-80",89 % of control
same,T/C,"dose: 6.12 mg/kg/injection, schedule: Q01DX009 (ip), vehicle: saline with Tween-80",97 % of control
same,T/C,"dose: 6.25 mg/kg/injection, schedule: Q01DX009 (ip), vehicle: saline",108 % of control
Cc1ccc(N2C(=O)CSC2=S)cc1Br,T/C,[15],93 % of control
same,T/C,[16],105 % of control
same,T/C,[17],93 % of control
COC(=O)[CH2][Sn]([CH2]C(=O)OC)([CH]1CCCCC1)[CH]1CCCCC1,T/C,"dose: 1.56 mg/kg/injection, schedule: Q01DX005 (ip), vehicle: Klucel (hydroxypropylcellulose) (HPC)",104 % of control
same,T/C,"dose: 3.12 mg/kg/injection, schedule: Q01DX005 (ip), vehicle: Klucel (hydroxypropylcellulose) (HPC)",88 % of control
same,T/C,"dose: 6.25 mg/kg/injection, schedule: Q01DX005 (ip), vehicle: Klucel (hydroxypropylcellulose) (HPC)",111 % of control and 88 % of control
CC(C)CC1NC(=O)C(CC(C)C)N(CO)C1=O (centres undefined),T/C,[9],97 % of control
same,T/C,[10],99 % of control
same,T/C,[11],95 % of control
COC(=O)c1nnn(-c2ccccc2)n1,T/C,"dose: 25.0 mg/kg/injection, schedule: Q01DX005 (ip), vehicle: Klucel (hydroxypropylcellulose) (HPC)",99 % of control
same,T/C,[9],101 % of control
same,T/C,[10],101 % of control
